PMC12426922, “Fingerprinting the Intestinal Transport of Low-Molecular-Mass Advanced Glycation End-Products (AGEs) Using a Caco‑2 Transwell Model” (Journal of Agricultural and Food Chemistry, 2025)
Several values for one entry are separate records, joined by “and”; a condition that tells them apart may be missing. Equal values may be shown once. Read-outs that look alike come from different tables or passages of the source. Marks after values point to notes of the source that are not given here.

Experiments:
[1] = tested on: differentiated Caco-2 cells; test: WST-1 cytotoxicity assay, viability of differentiated Caco-2 cells after 2 h exposure; type: cell-based, Human; conditions: for the mixture: concentration of each AGE
Procedure: (§1) Human colon carcinoma cells (Caco-2 cells) were obtained from the American Type Culture Collection (ATCC, Rockville, MD, USA). Caco-2 cells were cultured in complete culture medium, composed of DMEM GlutaMAX with 10% FBS (v/v), 1% P/S (v/v), and 1% NEAA (v/v) at 37 °C in a 5% (v/v) CO2 incubator. In this study, Caco-2 cells within passages 10–15 were utilized.
The WST-1 assay was used to quantify the viability of differentiated Caco-2 cells upon exposure to the individual AGEs and their equimolar mixture. To this end, Caco-2 cells were seeded in 96-well plates at 3 × 10^4 cells/well (100 μL) and incubated at 37 °C under 5% (v/v) CO2 for 20 days. The complete culture medium was refreshed on each alternate day. After full differentiation, the culture medium was removed, and the cells were washed with HBSS (containing 1% (v/v) HEPES) twice on the testing day. The same volume (100 μL) of HBSS containing a series of concentrations of the different individual test compounds or of a mixture containing all 10 AGEs was added from a 20-times-concentrated stock solution in HBSS. The test concentrations were designed based on the estimated daily intake of total AGEs (0.55–0.66 mg/(kg·day)) and high-exposure scenarios (1.4–1.8 mg/(kg day)). […] After exposure for 2 h, the absorbance at 440 and 620 nm was measured in a plate spectrophotometer (Molecular Devices, San Jose, CA, USA, Spectra Max M2). After measurement, the cell viability was calculated as cell viability (%)=(Atested 440 nm−Atested 620 nm)/(Acontrol 440 nm−Acontrol 620 nm)×100

[2] = Transport of AGE mixture across Caco-2 cell layer (transwell, apical to basolateral); type: in vitro ADME, Human; conditions: human; for recovery at 2 h, 100 μmol/L: read-out: percentage of the amount added at the apical side at t = 0: recovery; for Papp at 120 min, 100 μmol/L: data from 120 min
Procedure: as §1
(§2) Caco-2 cells were cultured until reaching 50%–60% confluence (undifferentiated Caco-2 cells), followed by trypsinization. Then, cells were seeded at 3 × 10^4 cells per insert in 100 μL of complete culture medium into the transwell inserts of a 24-well transwell plate, and 600 μL of complete culture medium was added to the basolateral compartments. In both the apical and basolateral compartments, the medium was renewed every other day. After 2 weeks, the transepithelial electrical resistance (TEER) value was measured using a Millicell ERS-2 Electrical Resistance System (Burlington, MA, USA) every other day. Only wells with a TEER value of >400 Ω/cm^2 were used for transport experiments. Moreover, the TEER value was measured before and after the transport experiment to ascertain that the Caco-2 cell layer remained intact during the whole transport experiment.
(§3) Transport experiments were performed after 20 days of differentiation of the Caco-2 cells. The culture medium was replaced with HBSS (containing 1% (v/v) HEPES) 30 min prior to testing in both the apical and basolateral compartments. After the 30 min preincubation, 100 μL of HBSS containing a mixture of the 10 different AGEs including CML, CEL, GALA, argpyrimidine, MG-H1, GOLD, GOLA, MOLD, pentosidine, and pyrraline, each at 100 μmol/L, was added to the apical compartment after removing the preincubation medium, while the basolateral medium was replaced by 600 μL of HBSS. […] At 120 min, a 10 μL sample from the apical side was taken for calculating apical side retention (nontransported percentage).
(§4) The apparent permeability coefficient (Papp) value was calculated according to the methodology described by Yee.
(§5) AGEs were quantified by LC-MS using a Shimadzu Nexera XR LC-40D XR UPLC system (Kyoto, Japan) equipped with a UPLC Amide column (100 mm × 2.1 mm, 1.7 μm) without derivatization coupled with a Shimadzu LCMS-8045 triple quadrupole mass spectrometer (Kyoto, Japan). The analytical column was maintained at 40 °C throughout the quantification process. A multistep binary gradient system of water containing 0.1% (v/v) formic acid (solvent A) and acetonitrile containing 0.1% (v/v) formic acid (solvent B) was used. In the whole gradient program, the total proportion of solvents A and B is always equal to 100%. The gradient program was designed as follows: 75% solvent B to 12.5% solvent B from 0 to 10 min, followed by 12.5% solvent B from 10 to 11 min. […] The initial flow rate was set to 0.30 mL/min. Subsequently, it was reduced to 0.25 mL/min at 0.3 min, which was kept until 10 min. Afterward, there was a gradual decrease, reaching 0.15 mL/min at 11 min, and this rate was maintained until 12 min. […] Between 1 and 11 min of gradient running, the line was set to MS, and for the other time periods, the line was set to waste. The retention time and mass spectrometry parameters of individual AGEs are listed in Table S1 and the chromatograms of the samples are shown in Figure S1.

Caco-2 cell layer = test: as above; type: in vitro ADME, Human; conditions: for percentage of the amount added at the apical side at t = 0: apical side / percentage of the amount added at the apical side at t = 0: basolateral side / percentage of the amount added at the apical side at t = 0: apical side (nontransported) / percentage of the amount added at the apical side at t = 0: basolateral side (transported): mixture, each AGE 100 μmol/L, 2 h; for percentage of the amount added at the apical side at t = 0: apical side (nontransported) / percentage of the amount added at the apical side at t = 0: basolateral side (transported): standard treatment
Procedure: as §1, §2, §3, §4, §5

PepT1 = test: as above; type: in vitro ADME, Human; conditions: human, mixture, each AGE 100 μmol/L; for recovery at 2 h, 100 μmol/L: Caco-2, with Gly-Sar 10 mmol/L (apical compartment), Gly-Sar 10 mmol/L, read-out: percentage of the amount added at the apical side at t = 0: recovery; for Papp at 120 min, 100 μmol/L: Caco-2, with Gly-Sar 10 mmol/L (apical), 10 mmol/L Gly-Sar apical (PepT1 inhibition), data from 120 min
Procedure: as §1, §2, §3, §4, §5

Caco-2 cell monolayer = test: Accumulation of AGEs in the Caco-2 cell monolayer after transport experiment; type: in vitro ADME, Human; conditions: 2 h; for percentage of the amount added at the apical side at t = 0: accumulation / percentage of the amount added at the apical side at t = 0: accumulation (intracellular): mixture, each AGE 100 μmol/L
Procedure: After the transport experiment, the cell monolayer on the inset membrane was washed three times with HBSS and three times with PBS. […] The samples were subsequently centrifuged at 16 000g for 20 min at 4 °C, and the supernatant was collected for further analysis by LC-MS.
as §5, with “The” for “AGEs were quantified by LC-MS using a Shimadzu Nexera XR LC-40D XR UPLC system (Kyoto, Japan) equipped with a UPLC Amide column (100 mm × 2.1 mm, 1.7 μm) without derivatization coupled with a Shimadzu LCMS-8045 triple quadrupole mass spectrometer (Kyoto, Japan). The”, “100%.” for “100%. The gradient program was designed as follows: 75% solvent B to 12.5% solvent B from 0 to 10 min, followed by 12.5% solvent B from 10 to 11 min.”

[3] = Caco-2, 4 °C, mixture, each AGE 100 μmol/L
[4] = Caco-2, cytochalasin D pretreatment, mixture, each AGE 100 μmol/L
[5] = Caco-2, standard treatment (37 °C), equimolar mixture of 10 AGEs, each 100 μmol/L apical
[6] = Caco-2, standard treatment, mixture, each AGE 100 μmol/L
[7] = Caco-2, cytochalasin D 1 μg/mL, 30 min apical preincubation, mixture, each AGE 100 μmol/L

SMILES	concentration that did not significantly affect cell viability [1] [µM]	recovery at 2 h, 100 μmol/L [2, 3] [%]	Papp at 120 min, 100 μmol/L [2, 3] [×10⁻⁶ cm/s]	recovery at 2 h, 100 μmol/L [2, 4] [%]	Papp at 120 min, 100 μmol/L [2, 5] [×10⁻⁶ cm/s]	recovery at 2 h, 100 μmol/L [2, 6] [%]	Papp at 120 min, 100 μmol/L [2, 7] [×10⁻⁶ cm/s]	percentage of the amount added at the apical side at t = 0: apical side (Caco-2 cell layer; 4 °C)	percentage of the amount added at the apical side at t = 0: basolateral side (Caco-2 cell layer; 4 °C)	percentage of the amount added at the apical side at t = 0: basolateral side (Caco-2 cell layer; Gly-Sar 10 mmol/L)	percentage of the amount added at the apical side at t = 0: apical side (Caco-2 cell layer; cytochalasin D pretreatment)	percentage of the amount added at the apical side at t = 0: basolateral side (Caco-2 cell layer; cytochalasin D pretreatment)	percentage of the amount added at the apical side at t = 0: apical side (nontransported) (Caco-2 cell layer)	percentage of the amount added at the apical side at t = 0: basolateral side (transported) (Caco-2 cell layer)	recovery at 2 h, 100 μmol/L (PepT1) [%]	Papp at 120 min, 100 μmol/L (PepT1) [×10⁻⁶ cm/s]	percentage of the amount added at the apical side at t = 0: accumulation (Caco-2 cell monolayer; 4 °C)	percentage of the amount added at the apical side at t = 0: accumulation (Caco-2 cell monolayer; Gly-Sar 10 mmol/L)	percentage of the amount added at the apical side at t = 0: accumulation (Caco-2 cell monolayer; cytochalasin D pretreatment)	percentage of the amount added at the apical side at t = 0: accumulation (intracellular) (Caco-2 cell monolayer; standard treatment)	further results
CC(NCCCC[C@H](N)C(=O)O)C(=O)O (some centres unmarked) [CEL, N-ε-(carboxyethyl)-lysine]	≤ 1500	89.1 ± 9.1	0.105	95.5 ± 5.1	0.164	96.5 ± 7.2	0.507	88.8 ± 9.1 ^a %	0.3 ± 0.1 ^a %	0.4 ± 0.1 ^a %	93.1 ± 4.7 ^a %	1.2 ± 0.6 ^b %	95.0 ± 7.00 ^a %	0.4 ± 0.2 ^a %	89.5 ± 4.8	0.149	0.0 ± 0.0 ^b %	1.3 ± 0.2 ^a %	1.2 ± 0.2 ^a %	1.1 ± 0.2 ^a %	intracellular accumulation relative to CML (Caco-2 cell monolayer; standard treatment): about half that observed of CML
N[C@@H](CCCCNC(=O)CO)C(=O)O [GALA, glycolic acid–lysine–amide]	≤ 1500	89.3 ± 4.5	0.095	89.7 ± 4.6	0.448	86.2 ± 7.1	0.87	89.1 ± 4.5 ^a %	0.2 ± 0.1 ^c %	0.8 ± 0.2 ^b %	87.4 ± 4.3 ^a %	2.1 ± 0.8 ^a %	85.0 ± 7.1 ^a %	1.1% and 1.06% and 1.1 ± 0.3 ^b %	85.4 ± 3.6	0.321	0.0 ± 0.0 ^b %	0.2 ± 0.1 ^a %	0.2 ± 0.1 ^a %	0.2 ± 0.1 ^a %	effect of 4 °C on transport compared to 37 °C (Caco-2 cell layer; 4 °C versus 37 °C): significantly reduced; reduction of the Papp value in the presence of Gly-Sar (Caco-2 cell layer; Gly-Sar 10 mmol/L versus standard): 28%; percentage of the amount added at the apical side at t = 0: apical side (Caco-2 cell layer; Gly-Sar 10 mmol/L): 84.4 ± 3.6 ^a %
